As usually defined, the IC50 is the concentration at which inhibition is half-maximal. As a reminder, the inhibition is how much of the control response was suppressed. Low values mean little suppression, high ones strong suppression. As usually defined, the % Inhibition is the share of the control response that was lost under treatment. Higher therefore signals a response far below the control.

Structures can show the parent of a compound that is named as a salt. Where two headings read alike, the source gives them in different places.

Data set [1] deals with NCI-H460 non-small cell lung carcinoma cells. The data set can be described thus: Cytotoxicity on NCI-H460 tumor cell line (sulphorodamine B test). The format is cell-based. Conditions: further 48 h in drug-free medium, read-out: NCI-H460 IC50 μM ± SD. The method, then: To evaluate the effect of the compounds on survival cells, the sulphorodamine B test was used. To test the effects of the compounds on cell growth, NCI-H460 non-small cell lung carcinoma cells were used. Tumor cells were grown in RPMI 1640 containing 10% fetal bovine serum (GIBCO).
Tumor cells were seeded in 96-well tissue culture plates at approximately 10% confluence and were allowed to attach and recover for at least 24 h. Varying concentrations of the drugs were then added to each well to calculate their IC50 value (the concentration which inhibits the 50% of cell survival). The plates were incubated at 37° C. for 24 h. At the end of the treatment, the plates were washed by remotion of the surnatant and addition of PBS. Medium culture (200 μL) was added again and the plates were incubated for further 48 h at 37° C. 200 μl PBS and 50 μl of cold 80% TCA were added. The plates were incubated on ice for at least 1 h. TCA was removed, the plates were washed 3 times for immersion in distilled-water and dried on paper and at 40° C. for 5 min. Then 200 μl of 0.4% sulphorodamine B in 1% acetic acid were added. The plates were incubated at room temperature for other 30 min. Sulphorodamine B was removed, the plates were washed for immersion in 1% acetic acid for 3 times, then they were dried on paper and at 40° C. for 5 min. Then 200 μl Tris 10 mM were added, the plates were kept under stirring for 20 min. The survival cell was determined as optical density by a Multiskan spectrofluorimeter at 540 nm. The amount of cells killed was calculated as the percentage decrease in sulphorodamine B binding compared with control cultures, the latter involving the use of (2E)-3-[3′-(1-adamantyl)-4′-hydroxy[1,1′-biphenyl]-4-yl]-2-propenoic acid (ST1926).
The IC50 values were calculated with the “ALLFIT” program.

In data set [2] the test system is human ovarian cancer cell line A2780. The data set can be described thus: Cytotoxicity on A2780 tumor cell line. The format is cell-based. Conditions: 5 Mm as printed in head (text: 5 μM), preliminary results; for inhibition at 5 µM: Homo sapiens, A2780. The method, then:
The antiproliferative effect of the compounds is reported as percentages of inhibition of cellular proliferation measured at 5 μM as reported in table 3.

Data set [3] concerns A431 tumour cells. The data set can be described thus: In vivo study on A431 epidermoid carcinoma. Conditions: iv 10 mg/10 ml/kg, qdx3/wx2w, after two weeks of treatment, sc A431 in CD1 nude mice; p=0.036 versus vehicle. The method, then: The tumour was generated by subcutaneous injection of A431 tumour cells (5×10^6/100 μl/mouse), in 0.1 ml medium Tc199 in the right flank of CD1 nude mice. 3 days after tumour injection, ST5589 was delivered iv at a dose of 10 mg/10 ml/kg according to the schedule qdx3/wx2w in a group of 9 mice.
To evaluate the antitumour activity of ST5589, tumour diameters were measured biweekly with a Vernier caliper and tumour volume was calculated according to the formula TV=d^2×D/2
where d and D are the shortest and longest diameters, respectively.
The efficacy of the drug was assessed as the tumour volume inhibition according to the formula reported underneath: […]

Data set [4] is described as follows: Chemical stability in solution at various pH. The format is physicochemical. Conditions: after 24 h at pH 7.4. The method, then: The compounds were screened at various pH in order to test their relative chemical stability in solution. All of them resulted stable after incubation for 3 h at pH=1.2. Chemical stability was also investigated at pH=7.4 after 24 h incubation.

[5] abbreviates: Homo sapiens, NCI-H460, 24 h treatment.

Take `O=C(O)/C=C/c1ccc(-c2ccc(O)c(C34CC5CC(CC(C5)C3)C4)c2)cc1` [Control, (2E)-3-[3′-(1-adamantyl)-4′-hydroxy[1,1′-biphenyl]-4-yl]-2-propenoic acid, reference compound]: the IC50 in data set [1] (setting [5]) was found to be 0.13 µM.

For the molecule `CC(C)[C@H](N)C(=O)Oc1ccc(-c2ccc(/C=C/C(=O)O)cc2)cc1C12CC3CC(CC(C3)C1)C2` [Example 1, (S)-2-amino-3-methyl-butyric acid 3-adamantan-1-yl-4′-((E)-2-carboxy-vinyl)-biphenyl-4-yl ester hydrochloride], the IC50 in data set [1] (setting [5]) came out at 0.51 ± 0.003 µM. The inhibition at 5 µM in data set [2] was found to be 93%.

On to `O=C(O)/C=C/c1ccc(-c2ccc(OC(=O)COCCOCCOCC(=O)O)c(C34CC5CC(CC(C5)C3)C4)c2)cc1` [Example 2, (E)-3-(3′-adamantan-1-yl-4′-{2-[2-(2-carboxymethoxy-ethoxy)-ethoxy]-acetoxy}-biphenyl-4-yl)-acrylic acid], for which the IC50 in data set [1] (setting [5]) was found to be 0.17 ± 0.007 µM. This molecule also displayed an inhibition at 5 µM in data set [2] of 93%.

As for `CCCCCCCCCCC(=O)Oc1ccc(-c2ccc(/C=C/C(=O)O)cc2)cc1C12CC3CC(CC(C3)C1)C2` [Example 3, undecanoic acid 3-adamantan-1-yl-4′-((E)-2-carboxy-vinyl)-biphenyl-4-yl ester], the IC50 in data set [1] (setting [5]) is 1.54 ± 0.08 µM. In data set [2], 5 µM produced 94% inhibition.

Take `Cl.O=C(O)/C=C/c1ccc(-c2ccc(OC(=O)CCCN3CCOCC3)c(C34CC5CC(CC(C5)C3)C4)c2)cc1` [Example 4, 4-morpholin-4-yl-butyric acid 3-adamantan-1-yl-4′-((E)-2-carboxy-vinyl)-biphenyl-4-yl ester hydrochloride]: in data set [1] (setting [5]), the IC50 stood at 0.22 ± 0.009 µM. Further, 5 µM produced 94% inhibition in data set [2]. In addition, the “reduction in tumour volume (tumour volume inhibition)” value in data set [3] is given as 34%.

In the case of `CN1CCN(CCCC(=O)Oc2ccc(-c3ccc(/C=C/C(=O)O)cc3)cc2C23CC4CC(CC(C4)C2)C3)CC1` [Example 5, 4-(4-methyl-piperazin-1-yl)-butyric acid 3-adamantan-1-yl-4′-((E)-2-carboxy-vinyl)-biphenyl-4-yl ester dihydrochloride], the IC50 in data set [1] (setting [5]) worked out at 0.24 ± 0.01 µM. The inhibition at 5 µM in data set [2] is 92%.

`CNCCNC(=O)Oc1ccc(-c2ccc(/C=C/C(=O)O)cc2)cc1C12CC3CC(CC(C3)C1)C2` [Example 6, (E)-3-[3′-adamantan-1-yl-4′-(2-methylamino-ethylcarbamoyloxy)-biphenyl-4-yl]-acrylic acid]: the IC50 in data set [1] (setting [5]) was determined as 0.24 ± 0.008 µM. In data set [2], this molecule returned an inhibition at 5 µM of 93%.

Consider `O=C(O)/C=C/c1ccc(-c2ccc(OC(=O)NCC(=O)O)c(C34CC5CC(CC(C5)C3)C4)c2)cc1` [Example 7, (E)-3-(3′-adamantan-1-yl-4′-carboxymethylcarbamoyloxy-biphenyl-4-yl)-acrylic acid], for which the IC50 in data set [1] (setting [5]) was 3 ± 0.1 µM. In addition, in data set [2], the inhibition at 5 µM was 26%.

As to `NCCCCNC(=O)Oc1ccc(-c2ccc(/C=C/C(=O)O)cc2)cc1C12CC3CC(CC(C3)C1)C2` [Example 8, (E)-3-[3′-adamantan-1-yl-4′-(4-amino-butylcarbamoyloxy)-biphenyl-4-yl]-acrylic acid hydrochloride], in data set [1] (setting [5]), the IC50 came out at 2.6 ± 0.08 µM. In addition, the inhibition at 5 µM in data set [2] was determined as 70%.

For `O=C(O)/C=C/c1ccc(-c2ccc(OC(=O)NCCN3CCOCC3)c(C34CC5CC(CC(C5)C3)C4)c2)cc1` [Example 9, (E)-3-[3′-adamantan-1-yl-4′-(2-morpholin-4-yl-ethyl-carbamoyloxy)-biphenyl-4-yl]-acrylic acid hydrochloride], the IC50 in data set [1] (setting [5]) amounted to 0.92 ± 0.05 µM. The inhibition at 5 µM in data set [2] worked out at 90%.

Turning to `CCCCCCCCCCCNC(=O)Oc1ccc(-c2ccc(/C=C/C(=O)O)cc2)cc1C12CC3CC(CC(C3)C1)C2` [Example 10, (E)-3-(3′-adamantan-1-yl-4′-undecyl-carbamoyloxy-biphenyl-4-yl)-acrylic acid], the IC50 in data set [1] (24 h treatment) was found to be 1.39 ± 0.04 µM. Also, the “% Inhibition at 5 Mm on A2780 cell line” value in data set [2] is listed as 90%.

For the molecule `O=C(O)/C=C/c1ccc(-c2ccc(OC(=O)N3CCC(N4CCCCC4)CC3)c(C34CC5CC(CC(C5)C3)C4)c2)cc1` [Example 11, [1,4′]bipiperidinyl-1′-carboxylic acid 3-adamantan-1-yl-4′-((E)-2-carboxy-vinyl)-biphenyl-4-yl ester hydrochloride], the IC50 in data set [1] (setting [5]) was above 20 µM.

`CC(C)NC(=O)Oc1ccc(-c2ccc(/C=C/C(=O)O)cc2)cc1C12CC3CC(CC(C3)C1)C2` [Example 12]: the IC50 in data set [1] (24 h treatment) turned out to be 5 µM.

On to `O=C(O)/C=C/c1ccc(-c2ccc(OC(=O)NC3CCN(C(=O)OCc4ccccc4)CC3)c(C34CC5CC(CC(C5)C3)C4)c2)cc1` [Example 13, 4-[3-adamantan-1-yl-4′-((E)-2-carboxy-vinyl)-biphenyl-4-yloxycarbonylamino]-piperidine-1-carboxylic acid benzyl ester], for which the IC50 in data set [1] (setting [5]) was 5 µM. The inhibition at 5 µM in data set [2] turned out to be 71%.

Take `CC(C)C[C@H](NC(=O)Oc1ccc(-c2ccc(/C=C/C(=O)O)cc2)cc1C12CC3CC(CC(C3)C1)C2)C(=O)NCC(=O)O` [Example 14, (E)-3-{3′-Adamantan-1-yl-4′-[(S)-1-(carboxymethyl-carbamoyl)-3-methyl-butylcarbamoyloxy]-biphenyl-4-yl}-acrylic acid]: in data set [1] (setting [5]), the IC50 was found to be 3.5 ± 0.2 µM.

For `COCCOCOc1ccc(-c2ccc(/C=C/C(=O)O)cc2)cc1C12CC3CC(CC(C3)C1)C2` [Example 15, (E)-3-[3′-Adamantan-1-yl-4′-(2-methoxyethoxymethoxy)-biphenyl-4-yl]acrylic acid], the IC50 in data set [1] (setting [5]) was found to be 4.2 ± 0.04 µM. Also, in data set [2], testing at 5 µM gave an inhibition of 78%.

On to `O=C(O)/C=C/c1ccc(-c2ccc(OC(=O)C3CC3)c(C34CC5CC(CC(C5)C3)C4)c2)cc1` [Example 16, (E)-cyclopropanecarboxylic acid 3-adamantan-1-yl-4′-(2-carboxyvinyl)-biphenyl-4-yl ester], for which, in data set [1] (24 h treatment), the IC50 stood at 0.85 ± 0.03 µM. In addition, the “% Inhibition at 5 Mm on A2780 cell line” value in data set [2] was 93%.

In the case of `O=C(O)/C=C/c1ccc(-c2ccc(OCN3C(=O)c4ccccc4C3=O)c(C34CC5CC(CC(C5)C3)C4)c2)cc1` [Example 17, (E)-3-[3′-Adamantan-1-yl-4′-(1,3-dioxo-1,3-dihydroisoindol-2-ylmethoxy)-biphenyl-4yl]-acrylic acid], the IC50 in data set [1] (setting [5]) is 8.4 ± 1.6 µM.

For the molecule `CCCCCC=CC/C=C/CCCCCCCC(=O)Oc1ccc(-c2ccc(C=CC(=O)O)cc2)cc1C12CC3CC(CC(C3)C1)C2` [Example 18, (E)-Octadeca-9,12-dienoic acid 3-adamantan-1-yl-4′-(2-carboxyvinyl)-biphenyl-4-yl ester], the IC50 in data set [1] (setting [5]) stood at 7.8 ± 0.7 µM. This molecule gave an inhibition at 5 µM in data set [2] of 55%.

For `CCCOC(=O)OCOc1ccc(-c2ccc(/C=C/C(=O)O)cc2)cc1C12CC3CC(CC(C3)C1)C2` [Example 19], the IC50 in data set [1] (24 h treatment) came to 0.32 ± 0.01 µM.

Take `NC1(C(=O)Oc2ccc(-c3ccc(/C=C/C(=O)O)cc3)cc2C23CC4CC(CC(C4)C2)C3)CC1.O=C(O)C(F)(F)F` [Example 20, (E)-1-[3-Adamantan-1-yl-4′-(2-carboxyvinyl)-biphenyl-4-yloxycarbonyl]-cyclopropyl-ammonium trifluoroacetate]: the “amount of E-4-(3-(1-adamantyl)-4-hydroxyphenyl)cinnamic acid (hydrolysed parent compound)” value in data set [4] worked out at 8%. Besides, the IC50 in data set [1] (setting [5]) amounted to 0.1 ± 0.003 µM. At 5 µM the inhibition in data set [2] was 94%.

Consider `N#CCOc1ccc(-c2ccc(/C=C/C(=O)O)cc2)cc1C12CC3CC(CC(C3)C1)C2` [Example 21, (E)-3-(3′-Adamantan-1-yl-4′-cyanomethoxybiphenyl-4-yl)-acrylic acid], for which the IC50 in data set [1] (setting [5]) stood at 0.85 ± 0.06 µM.

As for `O=C(O)/C=C/c1ccc(-c2ccc(OCCN3CCOCC3)c(C34CC5CC(CC(C5)C3)C4)c2)cc1` [Example 23, (E)-3-[3′-Adamantan-1-yl-4′-(2-morpholin-4-yl-ethoxy)biphenyl-4-yl]-acrylic acid], in data set [1] (setting [5]), the IC50 was above 5 µM.

The values are drawn from patent US8530517B2, “Retinoid derivatives endowed with cytotoxic and/or antiangiogenic properties” (Sigma-Tau Industrie Farmaceutiche Riunite S.p.A., priority 2008, dated 2013).
